{"source": "paper PMC9862186", "about": "(International Journal of Molecular Sciences, 2023)", "key": {"[1]": {"test": "in vivo", "conditions": "male, Wistar, rat, in vivo, iv", "procedure": "A saline solution (0.9% NaCl) was added to a mixture of cinnamaldehyde (density = 1.05 g/mL) and Cremophor® RH 40 (1:1 v/v) in order to obtain a 12.5 mg/mL cinnamaldehyde emulsion in the presence of ethanol (10% of final volume). A group (n = 4) of male Wistar rats (200–250 g) fasted for 24 h was anesthetized during the experimental period and received 0.4 mL via a femoral intravenous infusion (rate = 0.2 mL/min; 2 min) of 12.5 mg/mL cinnamaldehyde emulsion (20 mg/kg cinnamaldehyde dose).\n(§1) At the end of the infusions and at fixed time points, CSF samples (50 μL) were withdrawn and blood samples (100 μL) were collected. The CSF was withdrawn using the cisternal puncture method described by van den Berg et al., which requires a single needle stick and allows the collection of serials (40–50 μL) CSF samples that are virtually blood-free. A total volume of about a maximum of 150 μL of CSF/rat (i.e., three 50 μL samples/rat) was collected during the experimental session, choosing the time points (n = 3–5, taking into account a maximum of three collections per rat) in order to allow the restoring of the CSF physiological volume.\nThe chromatographic apparatus consisted of a modular system (model LC-10 AD VD pump and model SPD-10A VP variable wavelength UV−vis detector; Shimadzu, Kyoto, Japan) and an injection valve with 20 μL sample loop (model 7725; Rheodyne, IDEX, Torrance, CA, USA). Separations were performed at room temperature on a 5 μm Hypersil BDS C-18 column (150 mm × 4.6 mm i.d.; Alltech Italia Srl, Milan, Italy) equipped with a guard column packed with the same Hypersil material. The volume injection was 10 μL. Data acquisition and processing were performed on a personal computer using CLASS-VP Software, version 7.2.1 (Shimadzu Italia, Milan, Italy).\nFor CSF simulation, standard aliquots of balanced solution (Dulbecco’s phosphate buffer saline—DPBS—without calcium and magnesium) in the presence of 0.45 mg/mL BSA were used."}, "[2]": {"test": "in vivo", "conditions": "Wistar, rat", "procedure": "(§2) Each type of formulation was administered to a group of four rats.\n(§3) In particular, 4.2 mL of EU-CD formulation were administered to rats (500 mg/kg dose).\n(§4) In particular, 320 μL of EU-SL formulation were administered to rats (500 mg/kg dose).\n(§5) Free cinnamaldehyde (100 mg) was orally administered by gavage to rats kept fasting since 24 h. In particular, 95 μL of cinnamaldehyde (density = 1.05 g/mL) were dissolved in 905 μL of corn oil and administered to rats (400 mg/kg dose).\n(§6) The solid AC-GN formulation (14% w/w cinnamaldehyde) was mixed with palatable food in order to induce their oral intake by the rats kept fasting since 24 h. In particular, the rats assumed a dose of 100 mg of cinnamaldehyde (400 mg/kg) contained in 714 mg of AC-GN.\n(§7) After the administrations, blood (100 μL) and CSF samples (50 μL) were serially collected at fixed time points from each rat and treated as described above in order to quantify the compounds.\nIn particular, all the AUC values referred to the bloodstream were calculated by the trapezoidal method within the last time point detected, and the remaining area was obtained as the ratio between the compound concentration detected at the last time point and the elimination constant (kel), which was obtained from the slope of the semilogarithmic plots (−slope × 2.3). The clearance (Cl) and distribution volume (Vd) values were calculated according to the non-compartmental model as the ratios “dose/AUC” and “Cl/kel”, respectively, where kel is the elimination constant obtained by the slope of semilogarithmic plot."}, "[3]": {"test": "in vivo", "conditions": "rat, po", "procedure": "as §1, §2, §3, §4, §5, §6, §7"}, "[4]": {"test_system": "PC12 cells", "test": "MTT cell viability assay in neuronal differentiated PC12 cells", "format": "cell-based, rat", "conditions": "2 h", "procedure": "PC12 cell line (RRID:CVCL_0481), derived from rat adrenal gland pheochromocytoma, was a kind gift from Dr Federica Brugnoli from the Department of Translational Medicine, University of Ferrara, Ferrara (Italy). The cells were grown in RPMI-1640 (HiGlutaXL) medium (Microtech, Naples, Italy), supplemented with 100 µg/mL streptomycin and 100 IU/mL penicillin, 10% horse serum (HS), and 5% fetal bovine serum (FBS). PC12 cells were gently removed from the 4 µg/cm^2 collagen IV-coated flask with a rubber scraper, transferred as cell suspension into a Falcon tube and resuspended through a sterile tip to avoid any clumping, then split into separate flasks twice weekly. To differentiate neuronal phenotypes, PC12 cells were seeded in 4 µg/cm^2 collagen IV-coated 12-well plates at a density of 5000 cells/well, and they were then left to adhere to the well for 24 h. […] All the proliferative and differentiated cultures were maintained at 37 °C in a humidified 5% CO2 atmosphere.\nThe 100% of cell viability was stated as control in the absence of compound. Then, incubation buffer was withdrawn, and 0.2 mL per well of a solution of MTT 500 µg/mL was added to each well and kept for 2 h at 37 °C in a humidified atmosphere at 95% with 5% CO2. After the conversion of the substrate to a chromogenic product by metabolically active cells, the MTT solution was removed, and the purple MTT formazan crystals were solubilized with 0.1 mL/well of DMSO for 60 min at 37 °C. The absorbance of each sample was measured with a multiplate reader spectrophotometer (Sunrise® Microplate Reader, Tecan Trading AG, Männedorf, Switzerland) at 570 nm, using 690 nm as a reference wavelength. Cell viability, proportional to absorbance, was reported as ratio between the absorbance resulting from the treatments and absorbance resulting from the control, considered as 100% of viable cells. Data were plotted as graphs and analyzed using GraphPad software (Prism, version 7.0, San Diego, CA, USA)."}}, "data": [{"smiles": "C=CCc1ccc(O)c(OC)c1", "note": "[Eugenol]", "values": [{"measurement": "Tmax: time of Cmax in CSF", "setting": "[1]", "value": 10, "unit": "min"}, {"measurement": "AUC", "setting": "[1]; 20 mg/kg", "value": 935, "unit": "ng·h/mL"}, {"measurement": "Cmax", "setting": "[1]; 20 mg/kg", "value": "2790 ± 180", "unit": "ng/mL"}, {"measurement": "time within which CSF concentrations decreased to zero or near to zero", "setting": "[1]; 20 mg/kg", "value": "≤ 45", "unit": "min"}, {"measurement": "Kp at 10 min", "setting": "[1]; R: ratio of concentration between CSF and bloodstream at Tmax", "value": 0.96}, {"measurement": "Tmax: time of Cmax in the bloodstream", "setting": "[2]", "value": 10, "unit": "min"}, {"measurement": "bioavailability", "setting": "[2]; po, F: absolute bioavailability, oral versus iv AUC normalized to dose", "value": 4, "unit": "%"}, {"measurement": "AUC", "setting": "[3]", "value": 516, "unit": "ng·h/mL"}, {"measurement": "Tmax: time of Cmax in CSF", "setting": "[3]", "value": 20, "unit": "min"}, {"measurement": "increase of cell viability over the untreated cell value", "setting": "[4]; 25 µM, 37 °C, NGF-differentiated PC12", "value": 2.5, "unit": "times"}, {"measurement": "effect on cell viability compared to untreated control", "setting": "[4]; 2, 25, 50 and 100 µM, p < 0.0001, no toxic impact", "value": "statistically significant increase in cell viability"}, {"measurement": "most effective concentration in increasing cell viability", "setting": "[4]; tested 2, 25, 50 and 100 µM", "value": 25, "unit": "µM"}]}]}
